Measured values reported in BindingDB's records for doi:10.1002/prot.21207 (The Procter & Gamble Pharmaceuticals, 2007).

Target: T1, Methionine aminopeptidase (Escherichia coli (strain K12), UniProt P0AE18)
T1 sequence (P0AE18 whole entry): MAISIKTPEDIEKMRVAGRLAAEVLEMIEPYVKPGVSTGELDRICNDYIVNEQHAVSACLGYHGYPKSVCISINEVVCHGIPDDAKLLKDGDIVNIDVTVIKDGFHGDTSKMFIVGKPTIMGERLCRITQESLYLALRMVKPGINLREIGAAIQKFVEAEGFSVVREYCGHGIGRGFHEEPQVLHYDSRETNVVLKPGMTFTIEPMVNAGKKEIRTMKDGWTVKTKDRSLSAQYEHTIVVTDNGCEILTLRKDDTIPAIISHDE
Experiment: EcMAP Enzyme Inhibition Assay
Details: pH 7.5; 30 °C
Method: The inhibitory activity of a compound toward EcMAP was measured by incubating the compound at various concentrations in the presence of the enzyme and the peptide substrate MGMM. Activity can be determined based on the amount of GMM produced or the amount of MGMM consumed. The integrated area of the tripeptide or tetrapeptide peak was compared to a calibration curve generated by running HPLC chromatograms of known concentrations of the polypeptides.

Row | SMILES | IC50 [nM]
1 | N=c1nnc(=N)c1=NNc1cccc(C(=O)O)c1O [3-[(E)-2-(5-amino-3-imino-3H-pyrazol-4-yl)diazen-1-yl]-2-hydroxybenzoic acid] | 2000
2 | COc1ccc(NN=c2c(=N)nnc2=N)cc1 [3-imino-4-[(E)-2-(4-methoxyphenyl)diazen-1-yl]-3H-pyrazol-5-amine] | 1500
3 | Cc1c(Cl)cccc1NN=c1c(=N)nnc1=N [4-[(E)-2-(3-chloro-2-methylphenyl)diazen-1-yl]-3-imino-3H-pyrazol-5-amine] | 550

The remaining lines, values ahead:

Row | IC50 [nM] | SMILES
4 | 550 | N=c1nnc(=N)c1=NNc1cccc(F)c1 [4-[(E)-2-(3-fluorophenyl)diazen-1-yl]-3-imino-3H-pyrazol-5-amine]
5 | 1250 | N=c1nnc(=N)c1=NNc1ccc(Cl)cc1 [4-[(E)-2-(4-chlorophenyl)diazen-1-yl]-3-imino-3H-pyrazol-5-amine]
